Data from patent publication USRE42890E1, “Furazanobenzimidazoles” (Basilea Pharmaceutica AG, priority 2003, dated 2011).

Tested on: adherent cells or suspension cells
Experiment: Hoechst 33342 nuclear staining (fraction of apoptotic nuclei)
Assay type: cell-based
Set-up: key: 0 relating to no activity; 1 relating to weak activity comprising less than 70% of the cells; score 2 relating to strong activity comprising more than 70% of the cells
Conditions: H460, conc 0.01 μm

Row | SMILES | Hoechst 33342 nuclear staining score
1 | COc1cc2nc(-c3nonc3N)n(CC(=O)c3ccc(-c4ccccc4)cc3)c2cc1OC [Example 117] | 0
2 | COc1cc2nc(-c3nonc3N)n(CC(=O)c3ccc(Cl)cc3)c2cc1OC [Example 114] | 0
3 | Cc1cc2nc(-c3nonc3N)n(CC(=O)c3ccc(Cl)cc3)c2cc1C [Example 110] | 0

Same assay, conditions: H460, conc 0.1 μm

Row | SMILES | Hoechst 33342 nuclear staining score
4 | COc1cc2nc(-c3nonc3N)n(CC(=O)c3ccc(-c4ccccc4)cc3)c2cc1OC [Example 117] | 0
5 | COc1cc2nc(-c3nonc3N)n(CC(=O)c3ccc(Cl)cc3)c2cc1OC [Example 114] | 0
6 | Cc1cc2nc(-c3nonc3N)n(CC(=O)c3ccc(Cl)cc3)c2cc1C [Example 110] | 0

Same assay, conditions: H460, conc 1 μm

Row | SMILES | Hoechst 33342 nuclear staining score
7 | COc1cc2nc(-c3nonc3N)n(CC(=O)c3ccc(-c4ccccc4)cc3)c2cc1OC [Example 117] | 0
8 | COc1cc2nc(-c3nonc3N)n(CC(=O)c3ccc(Cl)cc3)c2cc1OC [Example 114] | 0
9 | Cc1cc2nc(-c3nonc3N)n(CC(=O)c3ccc(Cl)cc3)c2cc1C [Example 110] | 0

Same assay, conditions: HeLa, conc 0.01 μm

Row | SMILES | Hoechst 33342 nuclear staining score
10 | COc1cc2nc(-c3nonc3N)n(CC(=O)c3ccc(-c4ccccc4)cc3)c2cc1OC [Example 117] | 0
11 | COc1cc2nc(-c3nonc3N)n(CC(=O)c3ccc(Cl)cc3)c2cc1OC [Example 114] | 0
12 | Cc1cc2nc(-c3nonc3N)n(CC(=O)c3ccc(Cl)cc3)c2cc1C [Example 110] | 0

Same assay, conditions: HeLa, conc 0.1 μm

Row | SMILES | Hoechst 33342 nuclear staining score
13 | COc1cc2nc(-c3nonc3N)n(CC(=O)c3ccc(-c4ccccc4)cc3)c2cc1OC [Example 117] | 0
14 | COc1cc2nc(-c3nonc3N)n(CC(=O)c3ccc(Cl)cc3)c2cc1OC [Example 114] | 0
15 | Cc1cc2nc(-c3nonc3N)n(CC(=O)c3ccc(Cl)cc3)c2cc1C [Example 110] | 0

Same assay, conditions: HeLa, conc 1 μm

Row | SMILES | Hoechst 33342 nuclear staining score
16 | COc1cc2nc(-c3nonc3N)n(CC(=O)c3ccc(-c4ccccc4)cc3)c2cc1OC [Example 117] | 0
17 | COc1cc2nc(-c3nonc3N)n(CC(=O)c3ccc(Cl)cc3)c2cc1OC [Example 114] | 0
18 | Cc1cc2nc(-c3nonc3N)n(CC(=O)c3ccc(Cl)cc3)c2cc1C [Example 110] | 0

Same assay, conditions: Jily, conc 0.01 μm

Row | SMILES | Hoechst 33342 nuclear staining score
19 | COc1cc2nc(-c3nonc3N)n(CC(=O)c3ccc(-c4ccccc4)cc3)c2cc1OC [Example 117] | 0
20 | COc1cc2nc(-c3nonc3N)n(CC(=O)c3ccc(Cl)cc3)c2cc1OC [Example 114] | 0
21 | Cc1cc2nc(-c3nonc3N)n(CC(=O)c3ccc(Cl)cc3)c2cc1C [Example 110] | 0

Same assay, conditions: Jily, conc 0.1 μm

Row | SMILES | Hoechst 33342 nuclear staining score
22 | COc1cc2nc(-c3nonc3N)n(CC(=O)c3ccc(-c4ccccc4)cc3)c2cc1OC [Example 117] | 0
23 | COc1cc2nc(-c3nonc3N)n(CC(=O)c3ccc(Cl)cc3)c2cc1OC [Example 114] | 0
24 | Cc1cc2nc(-c3nonc3N)n(CC(=O)c3ccc(Cl)cc3)c2cc1C [Example 110] | 0

Same assay, conditions: Jily, conc 1 μm

Row | SMILES | Hoechst 33342 nuclear staining score
25 | COc1cc2nc(-c3nonc3N)n(CC(=O)c3ccc(-c4ccccc4)cc3)c2cc1OC [Example 117] | 0
26 | COc1cc2nc(-c3nonc3N)n(CC(=O)c3ccc(Cl)cc3)c2cc1OC [Example 114] | 0
27 | Cc1cc2nc(-c3nonc3N)n(CC(=O)c3ccc(Cl)cc3)c2cc1C [Example 110] | 0

Same assay, conditions: Jurkat, conc 0.01 μm

Row | SMILES | Hoechst 33342 nuclear staining score
28 | COc1cc2nc(-c3nonc3N)n(CC(=O)c3ccc(-c4ccccc4)cc3)c2cc1OC [Example 117] | 0
29 | COc1cc2nc(-c3nonc3N)n(CC(=O)c3ccc(Cl)cc3)c2cc1OC [Example 114] | 0
30 | Cc1cc2nc(-c3nonc3N)n(CC(=O)c3ccc(Cl)cc3)c2cc1C [Example 110] | 0

Same assay, conditions: Jurkat, conc 0.1 μm

Row | SMILES | Hoechst 33342 nuclear staining score
31 | COc1cc2nc(-c3nonc3N)n(CC(=O)c3ccc(-c4ccccc4)cc3)c2cc1OC [Example 117] | 0
32 | COc1cc2nc(-c3nonc3N)n(CC(=O)c3ccc(Cl)cc3)c2cc1OC [Example 114] | 0
33 | Cc1cc2nc(-c3nonc3N)n(CC(=O)c3ccc(Cl)cc3)c2cc1C [Example 110] | 0

Same assay, conditions: Jurkat, conc 1 μm

Row | SMILES | Hoechst 33342 nuclear staining score
34 | COc1cc2nc(-c3nonc3N)n(CC(=O)c3ccc(-c4ccccc4)cc3)c2cc1OC [Example 117] | 0
35 | COc1cc2nc(-c3nonc3N)n(CC(=O)c3ccc(Cl)cc3)c2cc1OC [Example 114] | 0
36 | Cc1cc2nc(-c3nonc3N)n(CC(=O)c3ccc(Cl)cc3)c2cc1C [Example 110] | 0

Same assay, conditions: MRC5, conc 0.01 μm

Row | SMILES | Hoechst 33342 nuclear staining score
37 | COc1cc2nc(-c3nonc3N)n(CC(=O)c3ccc(-c4ccccc4)cc3)c2cc1OC [Example 117] | 0
38 | COc1cc2nc(-c3nonc3N)n(CC(=O)c3ccc(Cl)cc3)c2cc1OC [Example 114] | 0
39 | Cc1cc2nc(-c3nonc3N)n(CC(=O)c3ccc(Cl)cc3)c2cc1C [Example 110] | 0

Same assay, conditions: MRC5, conc 0.1 μm

Row | SMILES | Hoechst 33342 nuclear staining score
40 | COc1cc2nc(-c3nonc3N)n(CC(=O)c3ccc(-c4ccccc4)cc3)c2cc1OC [Example 117] | 0
41 | COc1cc2nc(-c3nonc3N)n(CC(=O)c3ccc(Cl)cc3)c2cc1OC [Example 114] | 0
42 | Cc1cc2nc(-c3nonc3N)n(CC(=O)c3ccc(Cl)cc3)c2cc1C [Example 110] | 0

Same assay, conditions: MRC5, conc 1 μm

Row | SMILES | Hoechst 33342 nuclear staining score
43 | COc1cc2nc(-c3nonc3N)n(CC(=O)c3ccc(-c4ccccc4)cc3)c2cc1OC [Example 117] | 0
44 | COc1cc2nc(-c3nonc3N)n(CC(=O)c3ccc(Cl)cc3)c2cc1OC [Example 114] | 0
45 | Cc1cc2nc(-c3nonc3N)n(CC(=O)c3ccc(Cl)cc3)c2cc1C [Example 110] | 0

Same assay, conditions: PBLs, conc 0.01 μm

Row | SMILES | Hoechst 33342 nuclear staining score
46 | COc1cc2nc(-c3nonc3N)n(CC(=O)c3ccc(-c4ccccc4)cc3)c2cc1OC [Example 117] | 0
47 | COc1cc2nc(-c3nonc3N)n(CC(=O)c3ccc(Cl)cc3)c2cc1OC [Example 114] | 0
48 | Cc1cc2nc(-c3nonc3N)n(CC(=O)c3ccc(Cl)cc3)c2cc1C [Example 110] | 0

Same assay, conditions: PBLs, conc 0.1 μm

Row | SMILES | Hoechst 33342 nuclear staining score
49 | COc1cc2nc(-c3nonc3N)n(CC(=O)c3ccc(-c4ccccc4)cc3)c2cc1OC [Example 117] | 0
50 | COc1cc2nc(-c3nonc3N)n(CC(=O)c3ccc(Cl)cc3)c2cc1OC [Example 114] | 0
51 | Cc1cc2nc(-c3nonc3N)n(CC(=O)c3ccc(Cl)cc3)c2cc1C [Example 110] | 0

Same assay, conditions: PBLs, conc 1 μm

Row | SMILES | Hoechst 33342 nuclear staining score
52 | COc1cc2nc(-c3nonc3N)n(CC(=O)c3ccc(-c4ccccc4)cc3)c2cc1OC [Example 117] | 0
53 | COc1cc2nc(-c3nonc3N)n(CC(=O)c3ccc(Cl)cc3)c2cc1OC [Example 114] | 0
54 | Cc1cc2nc(-c3nonc3N)n(CC(=O)c3ccc(Cl)cc3)c2cc1C [Example 110] | 0

Tested on: HeLa
Experiment: MTS proliferation assay, HeLa
Assay type: cell-based, human
Conditions: 72 h incubation, read-out: MTS proliferation assay IC 50 HeLa
In short: (§1)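 Seed cells (1.5*10^3-10^4/well) 24 h ahead; add compound, final 10/3/1/0.3 μM; incubate 72 h, 37 °C, 7.5% CO2; MTS 3 h; read A492.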

Row | SMILES | IC50
55 | COc1cc2nc(-c3nonc3N)n(CC(=O)c3ccc(-c4ccccc4)cc3)c2cc1OC [Example 117] | > 1000 nM
56 | COc1cc2nc(-c3nonc3N)n(CC(=O)c3ccc(Cl)cc3)c2cc1OC [Example 114] | > 1000 nM
57 | Cc1cc2nc(-c3nonc3N)n(CC(=O)c3ccc(Cl)cc3)c2cc1C [Example 110] | > 1000 nM

Tested on: MRC5
Experiment: MTS proliferation assay, MRC5
Assay type: cell-based
Conditions: MRC5, 72 h incubation; read-out: MTS proliferation assay IC 50 MRC5
In short: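 RPMI-1640 + 5% or 10% FCS; seeded 24 h pre-dose; cpd final 10/3/1/0.3 μM, max 5% DMSO in added volume; 72 h, 37° C, 7.5% CO2; MTS 3 h; A492.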

Row | SMILES | IC50
58 | COc1cc2nc(-c3nonc3N)n(CC(=O)c3ccc(-c4ccccc4)cc3)c2cc1OC [Example 117] | > 1000 nM
59 | COc1cc2nc(-c3nonc3N)n(CC(=O)c3ccc(Cl)cc3)c2cc1OC [Example 114] | > 1000 nM
60 | Cc1cc2nc(-c3nonc3N)n(CC(=O)c3ccc(Cl)cc3)c2cc1C [Example 110] | > 1000 nM

Tested on: HT1080
Experiment: MTS proliferation assay, HT1080
Assay type: cell-based, human
Conditions: HT1080, 72 h incubation; read-out: MTS proliferation assay IC 50 HT1080
Method: Cell lines are cultured in RPMI-1640 tissue culture medium containing either 5% or 10% fetal calf serum, 0.05 mM 2-mercaptoethanol, 2 mM glutamine and penicillin/streptomycin 50 μg/ml (complete medium) (Sigma, Buchs, Switzerland). General growth conditions are 37° C. and 7.5% CO2.
The following human cell lines (either EGFP transfected or not) are being used: HeLa (ATCC: CCL-2), KB (ATCC: CCL-17), MCF7 (ATCC: HTB-22), SK-BR-3 (ATCC: HTB-30), SK-Mel 1 (ATCC: HTB-67), SK-Mel 28 (ATCC: HTB-72), PC-3 (ATCC: CRL-1435), SW 480 (ATCC: CCL-228), NCl-H460 (ATCC: HTB-177), NCl-H1792 (ATCC: CRL-5895), HT1080 (ATCC: CCL-21), Jurkat (ATCC: TIB-152), Ramos (ATCC: CRL-1596), Raji (ATCC: CCL-86), H9 (ATCC: HTB-176), Hut78 (ATCC: TIB-161), K562 (ATCC: CCL 243), HL-60 (ATCC: CCL 240), U-87MG (ATCC: HTB-14), HepG2 (ATCC: HB-8065), U-2 OS (ATCC: HTB-96), Saos-2 (ATCC: HTB-85), U937 (ATCC: CRL 1593), Hs 578T (ATCC: HTB 126), HBL-100 (ATCC: HTB 124), Molt-4 (ATCC: CRL 1582).
The assay is performed in 96 well tissue culture plates. The cells (range: 1.5*10^3-10^4) are seeded out in 80 μl complete medium 24 h prior to compound treatment. The test compounds are added in 20 μl complete medium containing max 5% DMSO. The final compound concentrations in the assays are 10 μM, 3 μM, 1 μM and 0.3 μM, respectively. The assay plates are incubated for 72 h at culture conditions. The MTS reagent is prepared according to the manufacturer's protocol (Promega G1111). 20 μl MTS reagent are added to each well, the assay plates are quickly spun and incubated for another 3 h at culture conditions. Subsequently, the plates are shortly shaked and absorption measured with a microplate-reader at 492 nm.

Row | SMILES | IC50
61 | COc1cc2nc(-c3nonc3N)n(CC(=O)c3ccc(-c4ccccc4)cc3)c2cc1OC [Example 117] | > 1000 nM
62 | COc1cc2nc(-c3nonc3N)n(CC(=O)c3ccc(Cl)cc3)c2cc1OC [Example 114] | > 1000 nM
63 | Cc1cc2nc(-c3nonc3N)n(CC(=O)c3ccc(Cl)cc3)c2cc1C [Example 110] | > 1000 nM

Tested on: Jurkat
Experiment: MTS proliferation assay, Jurkat
Assay type: cell-based, human
Conditions: 72 h incubation, read-out: MTS proliferation assay IC 50 Jurkat
In short: as §1

Row | SMILES | IC50
64 | COc1cc2nc(-c3nonc3N)n(CC(=O)c3ccc(-c4ccccc4)cc3)c2cc1OC [Example 117] | > 1000 nM
65 | COc1cc2nc(-c3nonc3N)n(CC(=O)c3ccc(Cl)cc3)c2cc1OC [Example 114] | > 1000 nM
66 | Cc1cc2nc(-c3nonc3N)n(CC(=O)c3ccc(Cl)cc3)c2cc1C [Example 110] | > 1000 nM
